According to PubChem BioAssay (NCI):
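Dose response: 5 concentrations. Exposure: 48 h. Format: 96-well plates. Endpoint: linear interpolation; highest concentration if not reached. GI50 marks 50% less growth. TGI is the concentration that stops growth completely.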

Experiments:
Assay in all cases: inhibition of tumour cell growth, NCI panel, 48 h
CAKI-1 renal = tested on: CAKI-1 renal
EKVX NSCLC = tested on: EKVX NSCLC
K-562 leukemia = tested on: K-562 leukemia
OVCAR-8 ovarian = tested on: OVCAR-8 ovarian
RPMI-8226 leukemia = tested on: RPMI-8226 leukemia
SF-295 CNS = tested on: SF-295 CNS
SK-MEL-5 melanoma = tested on: SK-MEL-5 melanoma
TK-10 renal = tested on: TK-10 renal
DU-145 prostate = tested on: DU-145 prostate
MCF7 breast = tested on: MCF7 breast

SMILES | TGI (CAKI-1 renal) | TGI (EKVX NSCLC) | TGI (K-562 leukemia) | TGI (OVCAR-8 ovarian) | TGI (RPMI-8226 leukemia) | TGI (SF-295 CNS) | TGI (SK-MEL-5 melanoma) | TGI (TK-10 renal) | GI50 (DU-145 prostate) | TGI (DU-145 prostate) | GI50 (EKVX NSCLC) | GI50 (K-562 leukemia) | GI50 (MCF7 breast) | TGI (MCF7 breast) | GI50 (OVCAR-8 ovarian) | GI50 (RPMI-8226 leukemia) | GI50 (SF-295 CNS) | GI50 (SK-MEL-5 melanoma) | GI50 (TK-10 renal) | GI50 (CAKI-1 renal)
CC(=O)CCCCCCCCCCCC[C@@H]1CC[C@H](C)[C@H](O)N1 | > 100 µM | > 100 µM | > 100 µM | > 100 µM | > 100 µM | > 100 µM | > 100 µM | > 100 µM | – | – | – | – | – | – | – | – | – | – | – | –
CCCCCCCCCCC/C(=N/O)c1ccc(O)c2ncccc12 | 51.6 µM | 20.1 µM | – | 16.2 µM | – | 6.78 µM | 4.18 µM | > 100 µM | – | – | – | – | – | – | – | – | – | – | – | –
O=C1C(Cl)C(c2cccc(O)c2)N1n1cnc2ccccc2c1=O (configuration not stated) | > 100 µM | > 100 µM | > 100 µM | > 100 µM | > 100 µM | > 100 µM | > 100 µM | > 100 µM | – | – | – | – | – | – | – | – | – | – | – | –
Cc1c(/C=N/NS(=O)(=O)c2ccccc2)no[n+]1[O-] | > 100 µM | > 100 µM | > 100 µM | > 100 µM | > 100 µM | > 100 µM | > 100 µM | > 100 µM | – | – | – | – | – | – | – | – | – | – | – | –
CCCCn1c2cc(OCc3cn(-c4ccc(Cl)cc4)nn3)ccc2c2ccnc(C)c21 | – | > 33.3 µM | > 33.3 µM | 23.9 µM | 11.9 µM | 17.8 µM | 9.87 µM | 14.1 µM | 15.2 µM | > 33.3 µM | 6.93 µM | 2.89 µM | 7.14 µM | > 33.3 µM | 6.42 µM | 3.43 µM | 5.03 µM | 5.35 µM | 7.55 µM | –
[N-]=[N+]=NC(c1cn(C2CC(O)C(CO)O2)c(=O)[nH]c1=O)C(Br)I (configuration not stated) | > 100 µM | > 100 µM | > 100 µM | > 100 µM | > 100 µM | > 100 µM | > 100 µM | > 100 µM | – | – | – | – | – | – | – | – | – | – | – | –
Cc1ccc(C(CN(C)C)C(=O)c2ccccc2)cc1 (configuration not stated) | 7.97 µM | 23.1 µM | 7.82 µM | 11.3 µM | 4.28 µM | 18.2 µM | 13.6 µM | – | 1.93 µM | 5.12 µM | 4.63 µM | 1.37 µM | – | – | 3.13 µM | 1.12 µM | 5.09 µM | 3.67 µM | – | 2.64 µM
COc1ccc(C=C2C(=O)OC(C)(C)OC2=O)cc1OC | > 100 µM | > 100 µM | > 100 µM | > 100 µM | > 100 µM | > 100 µM | > 100 µM | > 100 µM | – | – | – | – | – | – | – | – | – | – | – | –
Cc1ccccc1-c1c(N)nc(NC#N)nc1C(=O)Nc1ccccc1 | > 100 µM | > 100 µM | > 100 µM | – | > 100 µM | > 100 µM | > 100 µM | > 100 µM | – | – | – | – | – | – | – | – | – | – | – | –
CCN1C2=NC(=O)N(C)C(=O)C2(Cl)C(C(SC)S(=O)(=O)c2ccc(C)cc2)c2ccccc21 (configuration not stated) | > 100 µM | > 100 µM | 55.1 µM | 50.4 µM | 41.6 µM | > 100 µM | > 100 µM | > 100 µM | – | – | – | – | – | – | – | – | – | – | – | –
[Cl][Bi]([O]c1ccccn1)[O]c1ccccn1 | > 100 µM | > 100 µM | – | > 100 µM | – | > 100 µM | > 100 µM | > 100 µM | – | – | > 100 µM | – | – | – | > 100 µM | – | > 100 µM | 40.2 µM | > 100 µM | > 100 µM
